# Biological target: Alpha-glucosidase MAL12 (Saccharomyces cerevisiae (strain ATCC 204508 / S288c), UniProt P53341)
# Assay: α-Glucosidase Inhibitory Activity
# Method: The 135 µL of 50 mM phosphate saline buffer pH (6.8) was added in the 96-well plate and 20 µL of test sample with 70% DMSO added into the wells. The solution of Enzyme 20 µL was added into the wells, and incubated the plate for 15 min. After incubation pre-read of the plate was taken by the spectra max. Afterward 25 µL of the substrate (pNPG) was added and a reading was taken on spectra max at 400 nm for 30 min. The normal reading is taken and the percent inhibition was calculated.
# Alpha-glucosidase MAL12, sequence (P53341 whole entry): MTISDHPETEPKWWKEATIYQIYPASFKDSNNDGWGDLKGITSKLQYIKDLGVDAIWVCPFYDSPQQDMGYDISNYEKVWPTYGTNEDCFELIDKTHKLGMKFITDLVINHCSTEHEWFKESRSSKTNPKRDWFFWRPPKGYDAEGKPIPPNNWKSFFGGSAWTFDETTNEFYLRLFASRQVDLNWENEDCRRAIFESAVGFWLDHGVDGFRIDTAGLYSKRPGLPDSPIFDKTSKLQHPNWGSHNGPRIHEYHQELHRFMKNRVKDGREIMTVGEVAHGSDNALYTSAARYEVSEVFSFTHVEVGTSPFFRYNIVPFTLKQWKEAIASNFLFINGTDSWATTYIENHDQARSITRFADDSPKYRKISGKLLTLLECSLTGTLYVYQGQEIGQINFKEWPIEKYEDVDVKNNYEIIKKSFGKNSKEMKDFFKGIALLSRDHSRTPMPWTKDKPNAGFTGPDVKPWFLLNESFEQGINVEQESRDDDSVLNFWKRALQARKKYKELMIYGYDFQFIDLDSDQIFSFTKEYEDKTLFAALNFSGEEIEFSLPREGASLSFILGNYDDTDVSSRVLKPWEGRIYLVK
row,IC50,SMILES
1,54.6 µM,COc1ccc(/C=N/NC(=O)c2cc3ccccc3[nH]2)c(I)c1O [(E)-N'-(3-hydroxy-2-iodo-4-methoxybenzylidene)-1H-indole-2-carbohydrazide (14)]
2,191 µM,COc1ccc(/C=N/NC(=O)c2cc3ccccc3[nH]2)cc1O [(E)-N'-(3-hydroxy-4-methoxybenzylidene)-1H-indole-2-carbohydrazide (11)]
3,32.1 µM,O=C(N/N=C/c1ccc(Cl)cc1)c1cc2ccccc2[nH]1 [(E)-N'-(4-Chlorobenzylidene)-1H-indole-2-carbohydrazide (27)]
4,155 µM,COc1cc(/C=N/NC(=O)c2cc3ccccc3[nH]2)ccc1O [(E)-N'-(4-hydroxy-3-methoxybenzylidene)-1H-indole-2-carbohydrazide (8)]
5,206 µM,O=C(N/N=C/c1ccc(O)cc1)c1cc2ccccc2[nH]1 [(E)-N'-(4-hydroxybenzylidene)-1H-indole-2-carbohydrazide (9)]

# Continued, compound first:
row,SMILES,IC50
1,"O=C(N/N=C/c1cccc(O)c1O)c1cc2ccccc2[nH]1 [(E)-N'-(2,3-dihydroxybenzylidene)-1H-indole-2-carbohydrazide (6)]",86.5 µM
2,"O=C(N/N=C/c1c(O)cc(O)cc1O)c1cc2ccccc2[nH]1 [(E)-N'-(2,4,6-trihydroxybenzylidene)-1H-indole-2-carbohydrazide (2)]",49.2 µM
3,"O=C(N/N=C/c1cc(O)ccc1O)c1cc2ccccc2[nH]1 [(E)-N'-(2,5-dihydroxybenzylidene)-1H-indole-2-carbohydrazide (3)]",144 µM
4,COc1ccc(O)c(/C=N/NC(=O)c2cc3ccccc3[nH]2)c1 [(E)-N'-(2-hydroxy-5-methoxybenzylidene)-1H-indole-2-carbohydrazide (13)],49.2 µM
5,O=C(N/N=C/c1ccccc1O)c1cc2ccccc2[nH]1 [(E)-N'-(2-hydroxybenzylidene)-1H-indole-2-carbohydrazide (10)],42.6 µM
6,"O=C(N/N=C/c1cc(O)c(O)c(O)c1)c1cc2ccccc2[nH]1 [(E)-N'-(3,4,5-trihydroxybenzylidene)-1H-indole-2-carbohydrazide (1)]",2.3 µM
7,"O=C(N/N=C/c1ccc(O)c(O)c1)c1cc2ccccc2[nH]1 [(E)-N'-(3,4-dihydroxybenzylidene)-1H-indole-2-carbohydrazide (4)]",41 µM
8,"O=C(N/N=C/c1cc(O)cc(O)c1)c1cc2ccccc2[nH]1 [(E)-N'-(3,5-dihydroxybenzylidene)-1H-indole-2-carbohydrazide (7)]",226 µM
9,O=C(N/N=C/c1ccc(F)c(Br)c1)c1cc2ccccc2[nH]1 [(E)-N'-(3-Bromo-4-fluorobenzylidene)-1H-indole-2-carbohydrazide (19)],26.6 µM

# — BindingDB's records for doi:10.1016/j.bioorg.2015.09.001 (Universiti Teknologi Mara (Uitm), 2015)
